Data reported in patent publication US20220364139A1, “METHODS FOR DETERMINING GROWTH AND RESPONSE” (PATAIGIN, LLC, priority 2019, published 2022).

System: P. fluorescens strain that is susceptible to kanamycin
Assay: Growth inhibition of P. fluorescens in 8% D2O, read from deuterated vs undeuterated membrane lipid ions by MALDI mass spectrometry
Assay type: cell-based, Pseudomonas fluorescens
Conditions: range of antibiotic concentrations, FIG. 2
Procedure: In FIG. 1 is shown eight MALDI mass spectra from about 680 to 730 m/z in negative ionization mode of membrane lipids extracted from a P. fluorescens strain that is susceptible to kanamycin. The aforementioned P. fluorescens strain was grown in seven environments containing Mueller-Hinton media and water containing 8% D2O, with each of the seven environments also having a concentration of kanamycin from 0 μg/mL to 200 μg/mL.
Extract samples using the method of embodiment 1b, as follows: skip optional step 2 of embodiment 1b; perform step 3 of embodiment 1b by drying the plate at 80° C. for about 5 min; perform step 4 of embodiment 1b by applying 1 μL of a solution of chloroform-methanol-water at a ratio by volume of 12:6:1, to which 10 mg/mL of beta-carboline has been added.
3. […]
In FIG. 1 can be seen multiple spectra for samples of a P. fluorescens strain that is susceptible to kanamycin, grown under different conditions, then extracted with a method of embodiment 1d and analyzed with a method of embodiment 2 using negative ionization mode. […]
In FIG. 2 can be seen a graph of the ratio of heavy/light LA ions from the spectra in FIG. 1, where light LA is measured as the intensity of the ion peak at 688.5 m/z and heavy LA is measured as the intensity of the ion peak at 692.5 m/z.

SMILES: CC1(C)S[C@@H]2[C@H](NC(=O)C(C(=O)O)c3ccccc3)C(=O)N2[C@H]1C(=O)O (stereo partly shown) [carbenicillin]
- relationship between heavy/light ratio and antibiotic concentration: lowest at the highest antibiotic concentrations
